Measured values reported in US20050234015A1, “Low molecular weight heparin salt with triethanolamine useful as therapeutic-antitrombotic agent of local delivery, procedures for preparing them, process for elimination of hygroscopicity of heparin salt, pharmaceutical compositions for local use in antithrombotic therapy and uses therein” (priority 2004, published 2005).
Like-named read-outs stand apart in the source and are kept apart here.

Columns and labels:
[1] = anticoagulant strength of injectable heparin according to European Pharmacopoeia 2002 (EP strength); format: biochemical
Method: (§1) 7) Analytical Techniques Used • The anticoagulant strength of injectable heparin was determined according to European Pharmacopoeia 2002 (EP strength) and to USP 26 (USP strength) • Anti Xa and anti ha strengths were determined according to the literature of low molecular weight heparins (European Pharmacopoeia 2002) • Distribution of molecular weights and mean ponderal molecular weight were determined according to the literature of low molecular weight heparins (European Pharmacopoeia 2002), therefore, in the run buffer, TEA is replaced by Na^+ and the data obtained then pertain to polysaccharide sodium salt and not to TEA salt. • Triethanolamine is dosed by potentiometric titration.

[2] = system: experimental thrombosis in the tail of the test rat; assay: κ-carrageenan rat tail thrombosis model, local cream treatment; format: in vivo, Wister rats (female); conditions: 1000 u antiXa/gram, compared with local heparin and LMWH sodium salt creams
Source text: With such criteria, Wister rats (female) raised in the laboratory and sanitarily controlled were used as test mammal.
Particularly, the thrombosis model developed consists of generating an experimental thrombosis in the tail of the test rat by intravenous injection (right caudal vein) of a thrombogenic substance such as κ-carrageenan. Without treatment, the tail of the animal totally forms thrombus without remission over time and ends up with necrosis after 3-4 days.
Particularly, this test was carried out according to the general outlines in Beckmeier et al, Agents and Actions, 16, 446 (1985), as follows:
a. Animals: female rats of 200-300 grams weight.
b. Thrombosing Solution: κ carrageenan Type II solution (Sigma C 1263) 1 mg/ml in sterile physiologic solution. 1 ml /kg of animal (right caudal vein of the tail) is injected (0.25 ml).
c. Thrombus induction: a tourniquet is placed near the tail base (15 cm from the end thereof) which was previously shaved. After 1 minute a thrombosing solution is injected and the animal tail is immediately immersed for 30 seconds in ice water, water is removed, it is dried and the tourniquet is kept for an additional 30 seconds. Then, the animal is kept for 2 minutes in a chamber at 10° C.
d. […]

IIa [3] = molecular target: T1, IIa (Homo sapiens, UniProt P00734); assay: anti IIa strength, European Pharmacopoeia 2002 Low Molecular Mass Heparin; format: biochemical
Method: (§2) The anti Xa and anti IIa biological strengths were measured according to the European Pharmacopoeia EP2002; “Low Molecular Mass Heparin”, as well as the mean molecular weights (weighed average Mw) and the molecular weight distribution. Moreover, the standards and gages are those strictly cited in the mentioned literature. It is noted that in the run buffer for the chromatographic test by HPLC (Na2SO4, 0.2M pH 5.0) the TEA is replaced by N^a+ whereby the declared value is that of the sodium polysaccharide fraction and not the one of the LMWH-TEA salt.
as §1

Xa [4] = assay: anti Xa strength, European Pharmacopoeia 2002 Low Molecular Mass Heparin; format: biochemical
Method: as §2, §1

[5] = hygroscopicity of the lyophilized product (observation); format: physicochemical; conditions: lyophilized solid
Source text: The salt obtained from the reaction of the triethanolamine (TEA) with the low molecular weight heparin (LMWH) is an amber colored substance, with a waxy appearance, extremely difficult to manipulate due to its high hygroscopicity. These characteristics of the LMWH-TEA salt make extremely difficult its precise dosage in the preparation of the pharmaceutical end products (creams, gels, ointments).

Xa [6] = conditions: LMWH sodium salt by radical fragmentation methods, European Pat. 268885, U.S. Pat. No. 4,977,250; cited from earlier work
IIa [7] = molecular target: T1, IIa; conditions: LMWH sodium salt by radical fragmentation methods, European Pat. 268885, U.S. Pat. No. 4,977,250; cited from earlier work
[8] = Example 3 comparison: LMWH-TEA of Example 2 vs lyophilizate with mannitol (60:40)
[9] = theoretical calculation: 100 g LMWH-Na = 167 g LMWH-TEA

**Q.** With heparin [Injectable Heparin] as the substance, how does the “EP Strength” value ([1]; starting injectable heparin of Example 1) read?
**A.** 182 iu/mg

**Q.** What about the “EP Strength” value ([1]; starting injectable heparin of Example 2) of the same substance?
**A.** 180 iu/mg

**Q.** For “low molecular weight heparin salt with triethanolamine [LMWH-TEA]”, which “efficacy against thrombosis, in words” value [2] is on record?
**A.** highly significant restitutive activity

**Q.** What about the “anti IIa Strength” value (IIa [3]; [8]) of the same substance?
**A.** 24 iu/mg

**Q.** And the “anti IIa Strength” value (IIa [3]; product of Example 1)?
**A.** 24 iu/mg

**Q.** What about the “anti IIa Strength” value (IIa [3]; product of Example 2) of the same substance?
**A.** 24 iu/mg

**Q.** And the “anti IIa, Experimental” value (IIa [3]; summary of experimental data)?
**A.** 24 iu/mg

**Q.** And the “anti IIa, Theoretical” value (IIa [3]; [9])?
**A.** 24 iu/mg

**Q.** And the “anti Xa Strength” value (Xa [4]; [8])?
**A.** 50 iu/mg

**Q.** And the “anti Xa Strength” value (Xa [4]; product of Example 1 (HClO depolymerization, diafiltration with TEA))?
**A.** 51 iu/mg

**Q.** And the “anti Xa Strength” value (Xa [4]; product of Example 2 (H2O2/FeSO4 depolymerization, ion exchange resin, TEA))?
**A.** 50 iu/mg

**Q.** What about the “anti Xa, Experimental” value (Xa [4]; summary of experimental data) of the same substance?
**A.** 50-51 iu/mg

**Q.** And the “anti Xa, Theoretical” value (Xa [4]; [9])?
**A.** 54 iu/mg

**Q.** What about the hygroscopicity [5] of the same substance?
**A.** highly hygroscopic

**Q.** Which “anti Xa Strength” value (Xa [6]) does the source give for “low molecular weight heparin sodium salt [LMWH Na]” here?
**A.** ~90 iu/mg

**Q.** What about the “anti IIa Strength” value (IIa [7]) of the same substance?
**A.** ~40 iu/mg
